What all share (type): in vivo
Assay [1] concerns Rice (variety: Nipponbare). The assay can be described thus: Test Example 3: promotion of root growth by hydroponics of rice, 0.1 ppm. The settings on record: hydroponic solution containing the test compound at 0.1 ppm, average of 4 or 5 individuals. Here is the method:
(§1) Test for Evaluating Promotion of Root Growth by Hydroponics of Rice
(§2) Rice (variety: Nipponbare)
A DMSO solution, which contained one of the compounds 2, 6, 7, 16, 20, 33, 34, 36, 37, 38, 40, 41, 43, 44, 45, 46, 47, 48, 50, 51, 52, 53, 54, 55, 56, 61, 64, 67, 68, 71, 72, 73, 74, 75, 76, 79, 80, 81 and 83 of the present invention at a concentration of 1,000 ppm, was added to Hoagland hydroponic solution (Hoagland and Arnon, California Agricultural Experiment Station 1950 Circular 347 pp. 34) of ¼-fold concentration at a volume ratio of 1/10,000. In this manner, hydroponic solutions containing one of the compounds 2, 6, 7, 16, 20, 33, 34, 36, 37, 38, 40, 41, 43, 44, 45, 46, 47, 48, 50, 51, 52, 53, 54, 55, 56, 61, 64, 67, 68, 71, 72, 73, 74, 75, 76, 79, 80, 81 and 83 of the present invention at 0.1 ppm were prepared respectively. As an untreated control plot, a hydroponic solution obtained by adding DMSO to Hoagland hydroponic solution of ¼-fold concentration at a volume ratio of 1/10,000 was used.
Rice seeds were soaked in a 1% aqueous sodium hypochlorite solution for 10 minutes, then soaked in a 70% ethanol solution for surface sterilization, and then washed with distilled water. The sterilized seeds were soaked in a hydroponic solution containing the test compound described above at 0.1 ppm and incubated in a dark place for 3 days at 28° C. to perform treatment for hastening germination.
Thereafter, 30 ml of hydroponic solution containing the test compound at 0.1 ppm was dispensed in a plastic tube (diameter of 20 mm×height of 113 mm) of which the side was covered with cardboard to block light. A float prepared using a styrene board and vinyl mesh was floated, and the rice seeds that had undergone the treatment for hastening germination were placed on the float on the surface of the hydroponic solution. The seeds were cultivated for 3 days at 26° C., an illuminance of 4,000 lux of the top surface of the tube, a humidity of 50%, and a day length of 16 hours.
The nursery plants of rice obtained after culturing were measured in terms of the length of seminal root by using WinRHIZO system (manufactured by Regent Instruments Inc). For each test plot, an average of the measured values of the seminal root of 4 or 5 individuals was determined.

Assay [2] deals with Corn seeds (variety: Pioneer 120 31P41). The experiment in a line: Test Example 14: growth promotion under low-temperature stress by soil drench treatment of corn. The settings on record: soil drench 20 ml, low-temperature stress 5 days at 2.5° C., health score 0-5, average of 4 individuals; for change in vivo at 3 ppm: concentration tested 3 ppm. How it is done: Test for Evaluating Growth Promotion Under Low-Temperature Stress by Soil Drench Treatment of Corn
Corn seeds (variety: Pioneer 120 31P41) were seeded in a culture soil (Aisai) in a plastic pot (φ55 mm×height of 58 mm), and cultivated for 7 days at 20-25° C., an illuminance of about 5,000 lux, and a day length of 16 hours.
A DMSO solution, which contained one of the compounds 1 to 9, 16, 17, 20, 23, 24, 28 to 32, 34, 45, 48, 50, 82 and 85 of the present invention at a concentration of 1,000-fold concentration of each test concentration, was prepared, and then diluted with distilled water to obtain each test solution. After that, 20 ml of the obtained test solution was used to perform soil drench treatment on the foot of the test plants. The test plants were cultivated for 2 days under the conditions of a temperature of 27° C., a humidity of 40-80%, an illuminance of about 5,000 lux, and a day length of 16 hours. This was used as a test plot treated with the compound. A plot having undergone the soil drench treatment with 20 ml of a 0.1% DMSO aqueous solution instead of the above DMSO solution containing the compound was used as an untreated control plot.
The plants having undergone the soil drench treatment were cultivated for 5 days under the conditions of a temperature of 2.5° C., a humidity of 40-80%, an illuminance of about 5,000 lux, and a day length of 16 hours, thereby exposing to low-temperature stress. After the exposure to the low-temperature stress, the plants were cultivated for 4 days under the conditions of a temperature of 27° C., a humidity of 40-80%, an illuminance of about 5,000 lux, and a day length of 16 hours.
After the cultivation, the health of each plant was scored according to the following evaluation index.
5: 4 or more leaves in which ⅔ or more of the area was healthy
4: 3 leaves in which ⅔ or more of the area was healthy
3: 2 leaves in which ⅔ or more of the area was healthy
2: 1 leaf in which ⅔ or more of the area was healthy
1: No leaf in which ⅔ or more of the area was healthy
An average of the scores of the health of 4 individuals was determined.

The subject of assay [3] is Rice (variety: Nipponbare). The assay can be described thus: Test Example 1: promotion of root growth by hydroponics of rice, 10 ppm. The conditions noted are these: Oryza sativa, hydroponic solution containing the test compound at 10 ppm, average of 4 or 5 individuals, read-out: Relative value of length of seminal root (%-untreated control plot). In short, it runs like this:
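Surface-sterilised seeds germinated 3 days in the dark at 28° C in hydroponic solution with compound at 10 ppm, then grown 3 days hydroponically with compound at 10 ppm (26° C, 4,000 lux, 16 h day, 50% humidity). Seminal root length measured by image analysis, averaged over 4 or 5 plants per plot.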

In assay [4] the test system is Nicotiana benthamiana. The assay can be described thus: Test Example 4: growth promotion under low-temperature stress by hydroponics of Nicotiana benthamiana, 10 ppm. The settings on record: 10 ppm in medium, low-temperature stress 7 days at 1.5±1.0° C., green leaf area 3 days later, equation (1). Here is the method:
Test for Evaluating Growth Promotion Under Low-Temperature Stress by Hydroponics of Nicotiana benthamiana
A DMSO solution, which contained one of the compounds 1, 8, 9, 13, 18, 19, 22, 23, 29, 32, 33, 34, 39, 40, 41, 43, 44, 51, 53, 54, 55, 56, 58, 60, 62, 63, 64, 65, 67, 69, 71, 73, 74, 75, 77, 79, 82, 83 and 86 of the present invention at a concentration of 10,000 ppm, was prepared. The DMSO solution of the compound of the present invention was added at a volume ratio of 1/1,000 to the Murashige•Scoog medium of a ½-fold concentration (a medium containing 2.3 g of mixed salts for the Murashige•Scoog medium (manufactured by Wako Pure Chemical Industries, Ltd.), 200 mg of Myo-inositol (manufactured by Sigma-Aldrich Co. LLC.), 2 mg of nicotinic acid (manufactured by Wako Pure Chemical Industries, Ltd.), 2 mg of pyridoxine hydrochloride (manufactured by Wako Pure Chemical Industries, Ltd.), 20 mg of thiamine hydrochloride (manufactured by Wako Pure Chemical Industries, Ltd.), 20 g of sucrose (manufactured by Wako Pure Chemical Industries, Ltd.), and 1 g of MES (manufactured by DOJINDO LABORATORIES) per 1 L of water and having pH adjusted to 5.8), thereby preparing a medium containing the compound of the present invention at a concentration of 10 ppm.
Seeds of Nicotiana benthamiana were seeded in the 5 μL of the medium and cultured overnight at 22° C. Thereafter, 45 μL of the medium containing the compound of the present invention at a concentration of 10 ppm was added thereto, and the seeds are cultivated for 7 days at 22° C., an illuminance of 4,000 lux, and a day length of 16 hours, and the nursery plants raised from the Nicotiana benthamiana were treated with the compound. Moreover, instead of the above medium, a test plot, which was obtained by performing the same treatment by using a medium prepared by adding DMSO to the Murashige•Scoog medium of ½-fold concentration at a volume ratio of 1/1,000, was used as a control plot not treated with the compound.
The nursery plants of the Nicotiana benthamiana treated with the compound were subjected to low-temperature treatment by being cultivated for 7 days at 1.5±1.0° C., an illuminance of 2,000 lux, and a day length of 16 hours.
The nursery plants of the Nicotiana benthamiana having undergone the low-temperature stress treatment were cultivated for 3 days at 22° C., an illuminance of 4,000 lux, and a day length of 16 hours. Thereafter, the area of green leaf was quantified by Scanalyzer HTS (manufactured by LemnaTec GmbH). Moreover, the value of the control plot not treated with the compound that had not yet been subjected to the low-temperature stress treatment was measured in the same manner. A value of a relative leaf area was calculated based on the following equation (1), and if the value of a relative leaf area was 5 or greater, the compound was evaluated to have a mitigating effect. As a result of the evaluation, it was confirmed that when the plant was treated with one of the compounds 1, 8, 9, 13, 18, 19, 22, 23, 29, 32, 33, 34, 39, 40, 41, 43, 44, 51, 53, 54, 55, 56, 58, 60, 62, 63, 64, 65, 67, 69, 71, 73, 74, 75, 77, 79, 82, 83 and 86 of the present invention at 10 ppm, the value of a relative leaf area was 5 or greater, compared to the area of green leaf of the control plot not treated with compound. Accordingly, it was confirmed that the treatment using the compound of the present invention brings about a growth promotion effect.
Relative leaf area=100*(a green area of a plot treated with the compound of the present invention−a green area of a control plot not treated with the compound of the present invention)/(a green area of a control plot not treated with the compound of the present invention that has not yet been subjected to low-temperature stress treatment−a green area of a control plot not treated with the compound of the present invention) Equation (1): […]

Assay [5] concerns Rice (variety: Nipponbare). The assay can be described thus: Test Example 2: promotion of root growth by hydroponics of rice, 1 ppm. The settings on record: hydroponic solution containing the test compound at 1 ppm, average of 4 or 5 individuals. Here is the method: as §1, §2
A DMSO solution, which contained one of the compounds 1, 3, 11, 12, 14, 15, 17, 21, 28, 30, 33, 34, 35, 36, 37, 38, 40, 41, 43, 44, 45, 46, 47, 49, 50, 51, 52, 53, 54, 55, 56, 61, 62, 63, 65, 67, 68, 69, 70, 73, 74, 75, 76, 77, 80, 82, 83, 85 and 86 of the present invention at a concentration of 10,000 ppm, was added to Hoagland hydroponic solution (Hoagland and Arnon, California Agricultural Experiment Station 1950 Circular 347 pp. 34) of ¼-fold concentration at a volume ratio of 1/10,000. In this manner, hydroponic solutions containing one of the compounds 1, 3, 11, 12, 14, 15, 17, 21, 28, 30, 33, 34, 35, 36, 37, 38, 40, 41, 43, 44, 45, 46, 47, 49, 50, 51, 52, 53, 54, 55, 56, 61, 62, 63, 65, 67, 68, 69, 70, 73, 74, 75, 76, 77, 80, 82, 83, 85 and 86 of the present invention at 1 ppm were prepared respectively. As an untreated control plot, a hydroponic solution obtained by adding DMSO to Hoagland hydroponic solution of ¼-fold concentration at a volume ratio of 1/10,000 was used. Rice seeds were soaked in a 1% aqueous sodium hypochlorite solution for 10 minutes, then soaked in a 70% ethanol solution for surface sterilization, and then washed with distilled water. The sterilized seeds were soaked in a hydroponic solution containing the test compound described above at 1 ppm and incubated in a dark place for 3 days at 28° C. to perform treatment for hastening germination.
Thereafter, 30 ml of hydroponic solution containing the test compound at 1 ppm was dispensed in a plastic tube (diameter of 20 mm×height of 113 mm) of which the side was covered with cardboard to block light. A float prepared using a styrene board and vinyl mesh was floated, and the rice seeds that had undergone the treatment for hastening germination were placed on the float on the surface of the hydroponic solution. The seeds were cultivated for 3 days at 26° C., an illuminance of 4,000 lux of the top surface of the tube, a humidity of 50%, and a day length of 16 hours.
The nursery plants of rice obtained after cultivation were measured in terms of the length of seminal root by using WinRHIZO system (manufactured by Regent Instruments Inc). For each test plot, an average of the measured values of the seminal root of 4 or 5 individuals was determined.

[6] abbreviates: Zea mays, 120 h, read-out: Relative value of score (%- untreated control plot).

Results on 6 molecules are retold here after patent US20150289512A1, “METHOD FOR PROMOTING PLANT GROWTH” (SUMITOMO CHEMICAL COMPANY, LIMITED, priority 2012, published 2015).

As for `COC(=O)c1cc2c(C(F)(F)F)cccc2[nH]1` [Compound 6], the “Relative value of length of seminal root (%-untreated control plot)” value (“Relative value … (%-untreated control plot)” below) in assay [1] was over 5%. Further, the “Relative value of score (%- untreated control plot)” value in assay [2] (concentration tested 10 ppm) is over 5%.
Consider `COC(=O)c1cc2cc(C(F)(F)F)ccc2[nH]1` [Compound 8, methyl 5-trifluoromethylindole-2-carboxylate], for which the change in vivo at 10 ppm in assay [3] was over 5%. Further, the relative leaf area at 10 ppm in assay [4] was at least 5%. Moreover, the change in vivo at 3 ppm in assay [2] (setting [6]) is over 5%.
Take `O=C(O)c1nc2cccnc2[nH]1` [Compound 28]: the “Relative value … (%-untreated control plot)” value in assay [5] is given as over 5%. Besides, the “Relative value of score (%- untreated control plot)” value in assay [2] (concentration tested 10 ppm) is reported as over 5%.
For `COC(=O)c1nc2cc(C(F)(F)F)ccc2s1` [Compound 29, methyl 5-trifluoromethylbenzothiazole-2-carboxylate], in assay [3], the change in vivo at 10 ppm is over 5%. Also, in assay [4], the relative leaf area at 10 ppm is at least 5%. The change in vivo at 3 ppm in assay [2] (setting [6]) is over 5%.
Take `COC(=O)c1nc2ccccc2s1` [Compound 30]: the “Relative value … (%-untreated control plot)” value in assay [5] was over 5%. Besides, the “Relative value of score (%- untreated control plot)” value in assay [2] (concentration tested 10 ppm) is over 5%.
For the molecule `COC(=O)c1cc2ccc(C(F)(F)F)cc2o1` [Compound 48], the change in vivo at 0.1 ppm in assay [1] (Oryza sativa, read-out: Relative value of length of seminal root (%-untreated control plot)) was over 5%. Besides, the change in vivo at 10 ppm in assay [2] (Zea mays, 120 h, concentration tested 10 ppm, read-out: Relative value of score (%- untreated control plot)) was over 5%.
